# Measured values as given in US20250114374A1, “BCL-2 INHIBITORS” (Newave Pharmaceutical Inc., priority 2021, published 2025).
# pIC50: −log10 of the molar value.
# Tested on: RS4; 11 with G101V mutation
# Assay: In vitro anti-proliferation assay (ATPlite luminescence) in BCL-2-dependent ALL cell line RS4;11 with G101V mutation
# Assay type: cell-based
# Conditions: Homo sapiens, RS4-11, 72 h; read-out: RS411-G101V IC50
# In short: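 IC50 came from luminescent ATP quantification (ATPlite) following cell lysis. Compound dose ranges were applied for roughly 72 h to about 1×10^4 G101V-mutant RS4;11 cells per well, in 10% FBS medium.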
row,pIC50,SMILES
1,7.39,"Cc1ccccc1[C@@H]1CN([C@@H]2CCCOC2)CCN1C1CC2(CCN(c3ccc(C(=O)NS(=O)(=O)c4cc5c(c([N+](=O)[O-])c4)N[C@H](C4CCOCC4)CO5)c(N4c5cc6cc[nH]c6nc5O[C@H]5COCC[C@@H]54)c3)CC2)C1 [Example 178, N—(((R)-5-nitro-3-(tetrahydro-2H-pyran-4-yl)-3,4-dihydro-2H-benzo[b][1,4]oxazin-7-yl)sulfonyl)-2-((5aS,9aR)-6,7,9,9a-tetrahydro-1H-pyrano[3,4-b]pyrrolo[3′,2′:5,6]pyrido[3,2-e][1,4]oxazin-5(5aH)-yl)-4-(2-((R)-4-((R)-tetrahydro-2H-pyran-3-yl)-2-(o-tolyl)piperazin-1-yl)-7-azaspiro[3.5]nonan-7-yl)benzamide]"
2,6.65,"CC(C)Oc1ccccc1[C@@H]1CN(c2ccncc2)CCN1C1CC2(CCN(c3ccc(C(=O)NS(=O)(=O)c4cc5c(c([N+](=O)[O-])c4)N[C@H](C4CCOCC4)CO5)c(N4c5cc6cc[nH]c6nc5O[C@H]5COCC[C@@H]54)c3)CC2)C1 [Example 223, 4-(2-((R)-2-(2-isopropoxyphenyl)-4-(pyridin-4-yl)piperazin-1-yl)-7-azaspiro[3.5]nonan-7-yl)-N-(((R)-5-nitro-3-(tetrahydro-2H-pyran-4-yl)-3,4-dihydro-2H-benzo[b][1,4]oxazin-7-yl)sulfonyl)-2-((5aS,9aR)-6,7,9,9a-tetrahydro-1H-pyrano[3,4-b]pyrrolo[3′,2′:5,6]pyrido[3,2-e][1,4]oxazin-5(5aH)-yl)benzamide]"

# Same assay, conditions: cellular anti-proliferative IC50, about 72 hours, medium with 10% FBS, ATPlite; read-out: RS411-G101V IC50
row,SMILES,pIC50
1,"COc1cc(CN2CCN(C3CC4(CCN(c5ccc(C(=O)NS(=O)(=O)c6ccc(NCC7CCC(C)(O)CC7)c([N+](=O)[O-])c6)c(N6c7cc8c(F)c[nH]c8nc7O[C@H]7COCC[C@@H]76)c5)CC4)C3)[C@@H](c3ccccc3OC(C)C)C2)cnc1N1CCOCC1 (stereo partly drawn) [Example 122, 2-[(3R,8S)-13-fluoro-2,5-dioxa-9,15,17-triazatetracyclo[8.7.0.0^{3,8}.0^{12,16}]heptadeca-1(10),11,13,16-tetraen-9-yl]-4-{2-[(2S)-2-(2-isopropoxyphenyl)-4-{[5-methoxy-6-(morpholin-4-yl)pyridin-3-yl]methyl}piperazin-1-yl]-7-azaspiro[3.5]nonan-7-yl}-N-[3-nitro-4-({[(1r,4r)-4-hydroxy-4-methylcyclohexyl]methyl}amino)benzenesulfonyl]benzamide]",8.00
2,"COc1cc(CN2CCN(C3CC4(CCN(c5ccc(C(=O)NS(=O)(=O)c6ccc(NCC7CCC(C)(O)CC7)c([N+](=O)[O-])c6)c(N6c7cc8cc[nH]c8nc7O[C@H]7COCC[C@@H]76)c5)CC4)C3)[C@@H](c3ccccc3OC(C)C)C2)cnc1N1CCOCC1 (stereo partly drawn) [Example 119, N-((4-((((1r,4r)-4-hydroxy-4-methylcyclohexyl)methyl)amino)-3-nitrophenyl)sulfonyl)-4-(2-((S)-2-(2-isopropoxyphenyl)-4-((5-(methoxy-d3)-6-morpholinopyridin-3-yl)methyl)piperazin-1-yl)-7-azaspiro[3.5]nonan-7-yl)-2-((5aS,9aR)-6,7,9,9a-tetrahydro-1H-pyrano[3,4-b]pyrrolo[3′,2′:5,6]pyrido[3,2-e][1,4]oxazin-5(5aH)-yl)benzamide]",7.84
3,"Cc1ccccc1[C@@H]1CN(C2CCOCC2)CCN1C1CC2(CCN(c3ccc(C(=O)NS(=O)(=O)c4ccc(NCC5CCC(C)(O)CC5)c([N+](=O)[O-])c4)c(N4c5cc6cc[nH]c6nc5O[C@H]5COCC[C@@H]54)c3)CC2)C1 (stereo partly drawn) [Example 114, 2-[(3R,8S)-2,5-dioxa-9,15,17-triazatetracyclo[8.7.0.0^{3,8}.0^{12,16}]heptadeca-1(10),11,13,16-tetraen-9-yl]-4-{2-[(2R)-2-(2-methylphenyl)-4-(oxan-4-yl)piperazin-1-yl]-7-azaspiro[3.5]nonan-7-yl}-N-[3-nitro-4-({[(1r,4r)-4-hydroxy-4-methylcyclohexyl]methyl}amino)benzenesulfonyl]benzamide]",7.93
4,"Cc1ccccc1[C@@H]1CN(Cc2ccc(F)c(F)c2)CCN1C1CC2(CCN(c3ccc(C(=O)NS(=O)(=O)c4cc5c(c([N+](=O)[O-])c4)N[C@H](C4CCOCC4)CO5)c(N4c5cc6cc[nH]c6nc5O[C@H]5COCC[C@@H]54)c3)CC2)C1 [Example 168, 4-{2-[(2R)-4-[(3,4-difluorophenyl)methyl]-2-(2-methylphenyl)piperazin-1-yl]-7-azaspiro[3.5]nonan-7-yl}-2-[(3R,8S)-2,5-dioxa-9,15,17-triazatetracyclo[8.7.0.0^{3,8}.0^{12,16}]heptadeca-1(10),11,13,16-tetraen-9-yl]-N-[(3R)-5-nitro-3-(oxan-4-yl)-3,4-dihydro-2H-1,4-benzoxazin-7-ylsulfonyl]benzamide]",7.19
5,"COc1nc(CN2CCN(C3CC4(CCN(c5ccc(C(=O)NS(=O)(=O)c6ccc(NCC7CCC(C)(O)CC7)c([N+](=O)[O-])c6)c(N6c7cc8cc[nH]c8nc7O[C@H]7COCC[C@@H]76)c5)CC4)C3)[C@@H](c3ccccc3OC(C)C)C2)ccc1C (stereo partly drawn) [Example 106, 2-[(3R,8S)-2,5-dioxa-9,15,17-triazatetracyclo[8.7.0.0^{3,8}.0^{12,16}]heptadeca-1(10),11,13,16-tetraen-9-yl]-4-{2-[(2S)-2-(2-isopropoxyphenyl)-4-[(6-methoxy-5-methylpyridin-2-yl)methyl]piperazin-1-yl]-7-azaspiro[3.5]nonan-7-yl}-N-[3-nitro-4-({[(1r,4r)-4-hydroxy-4-methylcyclohexyl]methyl}amino)benzenesulfonyl]benzamide]",7.48
6,"COc1ccc(CN2CCN(C3CC4(CCN(c5ccc(C(=O)NS(=O)(=O)c6ccc(NC[C@H]7CC[C@](C)(O)CC7)c([N+](=O)[O-])c6)c(N6c7cc8cc[nH]c8nc7O[C@H]7COCC[C@@H]76)c5)CC4)C3)[C@@H](c3ccccc3OC(C)C)C2)cc1 [Example 99, 2-[(3R,8S)-2,5-dioxa-9,15,17-triazatetracyclo[8.7.0.0^{3,8}.0^{12,16}]heptadeca-1(10),11,13,16-tetraen-9-yl]-4-{2-[(2S)-2-(2-isopropoxyphenyl)-4-[(4-methoxyphenyl)methyl]piperazin-1-yl]-7-azaspiro[3.5]nonan-7-yl}-N-[3-nitro-4-({[(1r,4r)-4-hydroxy-4-methylcyclohexyl]methyl}amino)benzenesulfonyl]benzamide]",7.41
7,"COc1ncc(CN2CCN(C3CC4(CCN(c5ccc(C(=O)NS(=O)(=O)c6ccc(NCC7CCC(C)(O)CC7)c([N+](=O)[O-])c6)c(N6c7cc8cc[nH]c8nc7O[C@H]7COCC[C@@H]76)c5)CC4)C3)[C@@H](c3ccccc3OC(C)C)C2)cc1C1CC1 (stereo partly drawn) [Example 136, 4-{2-[(2S)-4-[(5-cyclopropyl-6-methoxypyridin-3-yl)methyl]-2-(2-isopropoxyphenyl)piperazin-1-yl]-7-azaspiro[3.5]nonan-7-yl}-2-[(3R,8S)-2,5-dioxa-9,15,17-triazatetracyclo[8.7.0.0^{3,8}.0^{12,16}]heptadeca-1(10),11,13,16-tetraen-9-yl]-N-[3-nitro-4-({[(1r,4r)-4-hydroxy-4-methylcyclohexyl]methyl}amino)benzenesulfonyl]benzamide]",7.45
